Assay results taken from ChEMBL document CHEMBL1201862, “PubChem BioAssay data set” (2004).
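96-well plates; 48 h exposure; 5 concentrations. Endpoints by linear interpolation between flanking doses. Not reached: highest tested concentration assigned. At the GI50, growth is halved.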 Activity calls are given as the source filed them. Cut-off read from the data, not from the text of the source: active = GI50 up to about 1.1 µM and inactive = higher.

Experiments:
Assay in all cases: DTP human tumour cell line panel, 48 h
CCRF-CEM = test system: CCRF-CEM
NCI-H522 = test system: NCI-H522
CAKI-1 = test system: CAKI-1
UO-31 = test system: UO-31
LOX IMVI = test system: LOX IMVI
BT-549 = test system: BT-549
UACC-257 = test system: UACC-257
RPMI-8226 = test system: RPMI-8226
TK-10 = test system: TK-10
SK-MEL-5 = test system: SK-MEL-5
SR = test system: SR
HL-60 = test system: HL-60
K562 = test system: K562
SW-620 = test system: SW-620
Malme-3M = test system: Malme-3M
PC-3 = test system: PC-3
SK-MEL-2 = test system: SK-MEL-2
IGROV-1 = test system: IGROV-1
NCI-H460 = test system: NCI-H460
KM12 = test system: KM12
SNB-19 = test system: SNB-19
A498 = test system: A498
EKVX = test system: EKVX
M14 = test system: M14
MOLT-4 = test system: MOLT-4
MCF7 = test system: MCF7
HCT-15 = test system: HCT-15
HCC 2998 = test system: HCC 2998
HOP-92 = test system: HOP-92
COLO 205 = test system: COLO 205
U-251 = test system: U-251
Hs-578T = test system: Hs-578T
SF-295 = test system: SF-295
OVCAR-4 = test system: OVCAR-4
SK-OV-3 = test system: SK-OV-3
ACHN = test system: ACHN
HOP-62 = test system: HOP-62
SF-539 = test system: SF-539
A549 = test system: A549
HCT-116 = test system: HCT-116
SK-MEL-28 = test system: SK-MEL-28
OVCAR-5 = test system: OVCAR-5
NCI/ADR-RES = test system: NCI/ADR-RES
MDA-MB-435 = test system: MDA-MB-435
NCI-H23 = test system: NCI-H23
NCI-H226 = test system: NCI-H226
SN12C = test system: SN12C
SF-268 = test system: SF-268
MDA-MB-231 = test system: MDA-MB-231
DU-145 = test system: DU-145
OVCAR-8 = test system: OVCAR-8
786-0 = test system: 786-0
UACC-62 = test system: UACC-62
OVCAR-3 = test system: OVCAR-3
HT-29 = test system: HT-29
RXF 393 = test system: RXF 393
MDA-N = test system: MDA-N
SNB-75 = test system: SNB-75

SMILES: COC(=O)[C@H]1C=NN[C@@H]1C(=O)N1[C@H]2CC3CC[C@@]2(CS1(=O)=O)C3(C)C
- GI50 (CCRF-CEM): > 100 µM (inactive)
- GI50 (NCI-H522): > 100 µM (inactive)
- GI50 (CAKI-1): > 100 µM (inactive)
- GI50 (UO-31): > 100 µM (inactive)
- GI50 (LOX IMVI): > 100 µM (inactive)
- GI50 (BT-549): > 100 µM (inactive)
- GI50 (UACC-257): > 100 µM (inactive)
- GI50 (RPMI-8226): > 100 µM (inactive)
- GI50 (TK-10): > 100 µM (inactive)
- GI50 (SK-MEL-5): > 100 µM (inactive)
- GI50 (SR): > 100 µM (inactive)
- GI50 (HL-60): > 100 µM (inactive)
- GI50 (K562): > 100 µM (inactive)
- GI50 (SW-620): > 100 µM (inactive)
- GI50 (Malme-3M): > 100 µM (inactive)
- GI50 (PC-3): > 100 µM (inactive)
- GI50 (SK-MEL-2): > 100 µM (inactive)
- GI50 (IGROV-1): > 100 µM (inactive)
- GI50 (NCI-H460): > 100 µM (inactive)
- GI50 (KM12): > 100 µM (inactive)
- GI50 (SNB-19): > 100 µM (inactive)
- GI50 (A498): > 100 µM (inactive)
- GI50 (EKVX): > 100 µM (inactive)
- GI50 (M14): > 100 µM (inactive)
- GI50 (MOLT-4): > 100 µM (inactive)
- GI50 (MCF7): > 100 µM (inactive)
- GI50 (HCT-15): > 100 µM
- GI50 (HCC 2998): > 100 µM (inactive)
- GI50 (HOP-92): > 100 µM (inactive)
- GI50 (COLO 205): > 100 µM (inactive)
- GI50 (U-251): > 100 µM (inactive)
- GI50 (Hs-578T): > 100 µM (inactive)
- GI50 (SF-295): > 100 µM (inactive)
- GI50 (OVCAR-4): > 100 µM (inactive)
- GI50 (SK-OV-3): > 100 µM (inactive)
- GI50 (ACHN): > 100 µM (inactive)
- GI50 (HOP-62): > 100 µM (inactive)
- GI50 (SF-539): > 100 µM (inactive)
- GI50 (A549): > 100 µM (inactive)
- GI50 (HCT-116): > 100 µM (inactive)
- GI50 (SK-MEL-28): > 100 µM (inactive)
- GI50 (OVCAR-5): > 100 µM (inactive)
- GI50 (NCI/ADR-RES): > 100 µM (inactive)
- GI50 (MDA-MB-435): > 100 µM (inactive)
- GI50 (NCI-H23): > 100 µM (inactive)
- GI50 (NCI-H226): > 100 µM (inactive)
- GI50 (SN12C): > 100 µM (inactive)
- GI50 (SF-268): > 100 µM (inactive)
- GI50 (MDA-MB-231): > 100 µM (inactive)
- GI50 (DU-145): > 100 µM (inactive)
- GI50 (OVCAR-8): > 100 µM (inactive)

SMILES: O=c1n(CCCN2CCN(c3cccc(Cl)c3)CC2)nc2n1-c1ccc3ccccc3c1SC2
- GI50 (CCRF-CEM): > 100 µM (inactive)
- GI50 (NCI-H522): > 100 µM (inactive)
- GI50 (CAKI-1): > 100 µM (inactive)
- GI50 (LOX IMVI): > 100 µM (inactive)
- GI50 (BT-549): > 100 µM (inactive)
- GI50 (786-0): > 100 µM (inactive)
- GI50 (UACC-257): > 100 µM (inactive)
- GI50 (RPMI-8226): 58.9 µM (inactive)
- GI50 (TK-10): > 100 µM (inactive)
- GI50 (SK-MEL-5): 6.01 µM (inactive)
- GI50 (SR): > 100 µM (inactive)
- GI50 (UACC-62): > 100 µM (inactive)
- GI50 (HL-60): > 100 µM (inactive)
- GI50 (K562): > 100 µM (inactive)
- GI50 (SW-620): > 100 µM (inactive)
- GI50 (PC-3): > 100 µM (inactive)
- GI50 (SK-MEL-2): > 100 µM (inactive)
- GI50 (IGROV-1): > 100 µM (inactive)
- GI50 (NCI-H460): > 100 µM (inactive)
- GI50 (OVCAR-3): > 100 µM (inactive)
- GI50 (KM12): > 100 µM (inactive)
- GI50 (SNB-19): > 100 µM (inactive)
- GI50 (A498): > 100 µM (inactive)
- GI50 (EKVX): 99.3 µM (inactive)
- GI50 (MOLT-4): 7.93 µM (inactive)
- GI50 (HT-29): 9.04 µM (inactive)
- GI50 (MCF7): > 100 µM (inactive)
- GI50 (HCT-15): > 100 µM
- GI50 (HOP-92): > 100 µM (inactive)
- GI50 (COLO 205): 4.4 µM (inactive)
- GI50 (U-251): > 100 µM (inactive)
- GI50 (Hs-578T): > 100 µM (inactive)
- GI50 (RXF 393): > 100 µM (inactive)
- GI50 (SF-295): > 100 µM (inactive)
- GI50 (OVCAR-4): > 100 µM (inactive)
- GI50 (SK-OV-3): > 100 µM (inactive)
- GI50 (HOP-62): > 100 µM (inactive)
- GI50 (SF-539): > 100 µM (inactive)
- GI50 (A549): > 100 µM (inactive)
- GI50 (HCT-116): 9.46 µM (inactive)
- GI50 (SK-MEL-28): > 100 µM (inactive)
- GI50 (OVCAR-5): > 100 µM (inactive)
- GI50 (NCI/ADR-RES): > 100 µM (inactive)
- GI50 (MDA-MB-435): > 100 µM (inactive)
- GI50 (NCI-H226): > 100 µM (inactive)
- GI50 (SN12C): > 100 µM (inactive)
- GI50 (MDA-N): > 100 µM (inactive)
- GI50 (SNB-75): > 100 µM (inactive)
- GI50 (DU-145): > 100 µM (inactive)
- GI50 (OVCAR-8): > 100 µM (inactive)

SMILES: CN(C)c1ccc(/C=C2\N=C(N/N=C/c3ccccc3O)NC2=O)cc1
- GI50 (BT-549): 44.7 µM (inactive)
- GI50 (RPMI-8226): 38.6 µM (inactive)
- GI50 (TK-10): 25.6 µM (inactive)
- GI50 (SNB-19): 41.9 µM (inactive)
- GI50 (A498): 25.1 µM (inactive)
- GI50 (HT-29): 34.3 µM (inactive)
- GI50 (HCC 2998): 36.9 µM (inactive)
- GI50 (HOP-92): 24 µM (inactive)
- GI50 (COLO 205): 31.3 µM (inactive)
- GI50 (Hs-578T): 68.9 µM (inactive)
- GI50 (RXF 393): 23.9 µM (inactive)
- GI50 (HOP-62): 22.5 µM (inactive)
- GI50 (SK-MEL-28): 25.1 µM (inactive)
- GI50 (OVCAR-5): 49.9 µM (inactive)
- GI50 (MDA-MB-435): 32.8 µM (inactive)
- GI50 (NCI-H226): 20.5 µM (inactive)
- GI50 (SN12C): 36.7 µM (inactive)
- GI50 (MDA-N): 39.1 µM (inactive)
- GI50 (SF-268): 34.4 µM (inactive)
- GI50 (SNB-75): 31.2 µM (inactive)
- GI50 (DU-145): 32.3 µM (inactive)

SMILES: CCN(CCCOc1ccccc1)CCN(CC)CCCOc1ccccc1
- GI50 (CCRF-CEM): 0.71 µM (active)
- GI50 (NCI-H522): 14.2 µM (inactive)
- GI50 (CAKI-1): 16.4 µM (inactive)
- GI50 (UO-31): 10.2 µM (inactive)
- GI50 (LOX IMVI): 10.8 µM (inactive)
- GI50 (BT-549): 14.3 µM (inactive)
- GI50 (786-0): 18.4 µM (inactive)
- GI50 (UACC-257): 16.2 µM (inactive)
- GI50 (RPMI-8226): 0.249 µM (active)
- GI50 (TK-10): 12.7 µM (inactive)
- GI50 (SK-MEL-5): 2.22 µM (inactive)
- GI50 (SR): 8.26 µM (inactive)
- GI50 (UACC-62): 14.2 µM (inactive)
- GI50 (HL-60): 7.46 µM (inactive)
- GI50 (K562): 3.1 µM (inactive)
- GI50 (SW-620): 20.8 µM (inactive)
- GI50 (Malme-3M): 15.8 µM (inactive)
- GI50 (PC-3): 2.52 µM (inactive)
- GI50 (SK-MEL-2): 17.9 µM (inactive)
- GI50 (IGROV-1): 10.9 µM (inactive)
- GI50 (NCI-H460): 8.38 µM (inactive)
- GI50 (OVCAR-3): 14.8 µM (inactive)
- GI50 (KM12): 12.2 µM (inactive)
- GI50 (SNB-19): 9.1 µM (inactive)
- GI50 (EKVX): 12.7 µM (inactive)
- GI50 (M14): 11.5 µM (inactive)
- GI50 (MOLT-4): 2.57 µM (inactive)
- GI50 (HT-29): 7.59 µM (inactive)
- GI50 (MCF7): 30.8 µM (inactive)
- GI50 (HCT-15): 10.4 µM
- GI50 (HCC 2998): 8.69 µM (inactive)
- GI50 (COLO 205): 5.86 µM (inactive)
- GI50 (U-251): 12.9 µM (inactive)
- GI50 (Hs-578T): 13.5 µM (inactive)
- GI50 (RXF 393): 13.4 µM (inactive)
- GI50 (SF-295): 15.6 µM (inactive)
- GI50 (OVCAR-4): 18.6 µM (inactive)
- GI50 (ACHN): 16.3 µM (inactive)
- GI50 (HOP-62): 20.4 µM (inactive)
- GI50 (SF-539): 10.7 µM (inactive)
- GI50 (A549): 12.8 µM (inactive)
- GI50 (HCT-116): 11.7 µM (inactive)
- GI50 (SK-MEL-28): 15.1 µM (inactive)
- GI50 (OVCAR-5): 17 µM (inactive)
- GI50 (NCI/ADR-RES): 20 µM (inactive)
- GI50 (MDA-MB-435): 13 µM (inactive)
- GI50 (NCI-H23): 18.8 µM (inactive)
- GI50 (NCI-H226): 21.8 µM (inactive)
- GI50 (SN12C): 20 µM (inactive)
- GI50 (SF-268): 12.6 µM (inactive)
- GI50 (SNB-75): 21.8 µM (inactive)
- GI50 (MDA-MB-231): 16.1 µM (inactive)
- GI50 (DU-145): 10.9 µM (inactive)
- GI50 (OVCAR-8): 15.7 µM (inactive)
